Test results taken from the supplement of paper PMC11061612.

What was measured:
Experiment in all cases: combination Emax (second highest fraction inhibited in the dose matrix, 72 h); higher = more inhibition; extreme values may be limits of the assay
[1] = system: SJRH30 (Rhabdomyosarcoma)
Method in brief: (§1)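 After 24 hours at 37°C and 5% CO2 in 1536-well plates, cells in DMEM/F12 or RPMI plus 10% FBS received two-drug dose matrices for 72 hours. Viability came from CellTiter-Glo 2.0 luminescence and was scaled as inhibition, anchored at 0 by vehicle wells and at 1 by blank wells. Combination Emax is taken as the second-highest inhibition in the matrix, and Bliss excess as the observed combination effect less EA + EB − EA·EB, with EA and EB the single-agent effects.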

[2] = system: HSC-3 (Oral Cavity Carcinoma)
Method in brief: as §1

[3] = system: LAMA-84 (Chronic Myelogenous Leukemia)
Method in brief: as §1

[4] = system: NCI-H196 (Small Cell Lung Carcinoma)
Method in brief: as §1

[5] = system: PANC-02-03 (Pancreatic Carcinoma)
Method in brief: as §1

[6] = system: CML-T1 (Chronic Myelogenous Leukemia)
Method in brief: as §1

[7] = system: RERF-LC-KJ (Lung Adenocarcinoma)
Method in brief: as §1

[8] = system: SW684 (Other Solid Carcinomas)
Method in brief: as §1

[9] = system: ES-2 (Ovarian Carcinoma)
Method in brief: as §1

[10] = system: HuO-3N1 (Osteosarcoma)
Method in brief: as §1

[11] = system: 786-0 (Kidney Carcinoma)
Method in brief: as §1

[12] = system: Caov-3 (Ovarian Carcinoma)
Method in brief: as §1

[13] = system: RT4 (Bladder Carcinoma)
Method in brief: as §1

[14] = system: LOUCY (T-Lymphoblastic Leukemia)
Method in brief: as §1

[15] = system: RL95-2 (Endometrial Carcinoma)
Method in brief: as §1

[16] = system: BALL-1 (B-Lymphoblastic Leukemia)
Method in brief: as §1

[17] = system: AN3-CA (Endometrial Carcinoma)
Method in brief: as §1

[18] = system: OV-90 (Ovarian Carcinoma)
Method in brief: as §1

[19] = system: NKM-1 (Acute Myeloid Leukemia)
Method in brief: as §1

[20] = system: PC-14 (Lung Adenocarcinoma)
Method in brief: as §1

| SMILES | combination Emax [1] | combination Emax [2] | combination Emax [3] | combination Emax [4] | combination Emax [5] | combination Emax [6] | combination Emax [7] | combination Emax [8] | combination Emax [9] | combination Emax [10] | combination Emax [11] | combination Emax [12] | combination Emax [13] | combination Emax [14] | combination Emax [15] | combination Emax [16] | combination Emax [17] | combination Emax [18] | combination Emax [19] | combination Emax [20] |
| --- | --- | --- | --- | --- | --- | --- | --- | --- | --- | --- | --- | --- | --- | --- | --- | --- | --- | --- | --- | --- |
| CN(C)CCCOc1ccc(-c2ccc3ncc4c(c3c2)n(C2CCOCC2)c(=O)n4C)cn1 [AZD0156] + C=CCn1c(=O)c2cnc(Nc3ccc(N4CCN(C)CC4)cc3)nc2n1-c1cccc(C(C)(C)O)n1 [AZD1775] (first compound max 1 µM, partner max 1 µM) | 0.809 | 0.243 | 0.942 | 0.478 | 0.672 | 0.917 | 0.33 | 0.107 | 0.616 | 0.183 | 0.536 | 0.65 | 0.314 | 1 | 0.429 | 0.977 | 0.351 | 0.454 | 0.853 | 0.866 |
| CN(C)CCCOc1ccc(-c2ccc3ncc4c(c3c2)n(C2CCOCC2)c(=O)n4C)cn1 [AZD0156] + CCN(CCO)CCCOc1ccc2c(Nc3cc(CC(=O)Nc4cccc(F)c4)[nH]n3)ncnc2c1 [AZD2811] (first compound max 1 µM, 7x7, partner max 1 µM) | 0.125 | 0.308 | 0.296 | 0.0373 | 0.163 | 0.259 | 0.359 | 0.154 | 0.167 | 0.15 | 0.118 | 0.809 | 0.349 | 0.929 | 0.557 | 0.634 | 0.27 | 0.143 | 0.473 | 0.202 |
| CN(C)CCCOc1ccc(-c2ccc3ncc4c(c3c2)n(C2CCOCC2)c(=O)n4C)cn1 [AZD0156] + C[C@@H]1COCCN1C2=NC(=NC(=C2)C3(CC3)[S@](=N)(=O)C)C4=C5C=CNC5=NC=C4 [AZD6738] (first compound max 1 µM, 7x7, partner max 10 µM) | 0.894 | 0.487 | 0.97 | 0.292 | 0.579 | 0.927 | 0.225 | 0.301 | 0.808 | 0.299 | 0.641 | 0.663 | 0.411 | 1 | 0.551 | 0.986 | 0.491 | 0.437 | 0.814 | 0.828 |
| C=CCn1c(=O)c2cnc(Nc3ccc(N4CCN(C)CC4)cc3)nc2n1-c1cccc(C(C)(C)O)n1 [AZD1775] + C[C@@H]1COCCN1C2=NC(=NC(=C2)C3(CC3)[S@](=N)(=O)C)C4=C5C=CNC5=NC=C4 [AZD6738] (first compound max 1 µM, partner max 10 µM) | 0.962 | 0.63 | 0.993 | 0.53 | 0.728 | 0.971 | 0.413 | 0.474 | 0.841 | 0.5 | 0.888 | 0.762 | 0.623 | 1 | 0.914 | 0.988 | 0.714 | 0.526 | 0.983 | 0.918 |
| C=CCn1c(=O)c2cnc(Nc3ccc(N4CCN(C)CC4)cc3)nc2n1-c1cccc(C(C)(C)O)n1 [AZD1775] + O=C(c1cc(Cc2n[nH]c(=O)c3ccccc23)ccc1F)N1CCN(C(=O)C2CC2)CC1 [Olaparib] (first compound max 1 µM, partner max 10 µM) | 0.777 | 0.268 | 0.943 | 0.536 | 0.667 | 0.962 | 0.276 | 0.249 | 0.622 | 0.2 | 0.543 | 0.716 | 0.283 | 1 | 0.486 | 0.985 | 0.339 | 0.559 | 0.945 | 0.887 |
| CCN(CCO)CCCOc1ccc2c(Nc3cc(CC(=O)Nc4cccc(F)c4)[nH]n3)ncnc2c1 [AZD2811] + C=CCn1c(=O)c2cnc(Nc3ccc(N4CCN(C)CC4)cc3)nc2n1-c1cccc(C(C)(C)O)n1 [AZD1775] (first compound max 1 µM, partner max 1 µM) | 0.827 | 0.492 | 0.917 | 0.468 | 0.538 | 0.915 | 0.312 | 0.165 | 0.627 | 0.233 | 0.546 | 0.846 | 0.408 | 1 | 0.662 | 0.986 | 0.308 | 0.654 | 0.879 | 0.842 |
| CCN(CCO)CCCOc1ccc2c(Nc3cc(CC(=O)Nc4cccc(F)c4)[nH]n3)ncnc2c1 [AZD2811] + C[C@@H]1COCCN1C2=NC(=NC(=C2)C3(CC3)[S@](=N)(=O)C)C4=C5C=CNC5=NC=C4 [AZD6738] (first compound max 1 µM, 7x7, partner max 10 µM) | 0.839 | 0.454 | 0.97 | 0.276 | 0.62 | 0.934 | 0.319 | 0.385 | 0.728 | 0.339 | 0.714 | 0.841 | 0.429 | 1 | 0.773 | 0.984 | 0.48 | 0.429 | 0.879 | 0.83 |
| CCN(CCO)CCCOc1ccc2c(Nc3cc(CC(=O)Nc4cccc(F)c4)[nH]n3)ncnc2c1 [AZD2811] + O=C(c1cc(Cc2n[nH]c(=O)c3ccccc23)ccc1F)N1CCN(C(=O)C2CC2)CC1 [Olaparib] (first compound max 1 µM, 7x7, partner max 10 µM) | 0.255 | 0.351 | 0.488 | 0.12 | 0.307 | 0.829 | 0.333 | 0.265 | 0.192 | 0.178 | 0.149 | 0.82 | 0.377 | 0.924 | 0.73 | 0.848 | 0.282 | 0.249 | 0.723 | 0.303 |
| CN(CCO)CC[C@H](CSc1ccccc1)Nc1ccc(S(=O)(=O)NC(=O)c2ccc(N3CCC([C@@H](O)c4ccccc4-c4ccc(Cl)cc4)CC3)cc2)cc1S(=O)(=O)C(F)(F)F [AZD4320] + C1CN(CCC1(C(=O)N[C@@H](CCO)C2=CC=C(C=C2)Cl)N)C3=NC=NC4=C3C=CN4 [Capivasertib] (first compound max 1 µM, 7x7, partner max 3 µM) | 0.427 | 0.53 | 0.696 | 0.175 | 0.0923 | 0.977 | 0.293 | 0.449 | 0.131 | 0.201 | 0.402 | 0.363 | 0.144 | 1 | 0.533 | 1 | 0.625 | 0.717 | 1 | 0.255 |
| CN(CCO)CC[C@H](CSc1ccccc1)Nc1ccc(S(=O)(=O)NC(=O)c2ccc(N3CCC([C@@H](O)c4ccccc4-c4ccc(Cl)cc4)CC3)cc2)cc1S(=O)(=O)C(F)(F)F [AZD4320] + C=CCn1c(=O)c2cnc(Nc3ccc(N4CCN(C)CC4)cc3)nc2n1-c1cccc(C(C)(C)O)n1 [AZD1775] (first compound max 1 µM, partner max 1 µM) | 0.93 | 0.707 | 1 | 0.671 | 0.585 | 1 | 0.272 | 0.381 | 0.722 | 0.349 | 0.715 | 0.979 | 0.629 | 1 | 0.53 | 1 | 0.468 | 0.933 | 1 | 0.99 |
| Cc1c2c(nn1C)CSCc1cc(n(C)n1)CSc1cc(c3ccccc3c1)OCCCc1c(C(=O)O)n(C)c3c-2c(Cl)ccc13 [AZD5991] + Cn1cnc2c(F)c(Nc3ccc(Br)cc3Cl)c(C(=O)NOCCO)cc21 [Selumetinib] (first compound max 1 µM, 7x7, partner max 3 µM) | 0.512 | 0.744 | 0.912 | 0.132 | 0.524 | 0.344 | 0.516 | 0.319 | 0.56 | 0.832 | 0.251 | 0.501 | 0.352 | 0.595 | 1 | 0.271 | 0.311 |  | 0.989 | 0.343 |
| CCc1c2c(nc3ccc(O)cc13)-c1cc3c(c(=O)n1C2)COC(=O)[C@]3(O)CC [SN-38] + O=C(c1cc(Cc2n[nH]c(=O)c3ccccc23)ccc1F)N1CCN(C(=O)C2CC2)CC1 [Olaparib] (first compound max 0.3 µM, 7x7, partner max 10 µM) | 0.444 | 0.847 | 0.948 |  | 0.728 | 1 |  | 0.556 |  | 0.688 | 0.931 | 0.984 | 0.832 | 0.764 |  | 1 |  | 0.553 | 0.987 | 0.696 |
| Cn1cnc2c(F)c(Nc3ccc(Br)cc3Cl)c(C(=O)NOCCO)cc21 [Selumetinib] + C[C@@H]1COCCN1C2=NC(=NC(=C2)C3(CC3)[S@](=N)(=O)C)C4=C5C=CNC5=NC=C4 [AZD6738] (first compound max 10 µM, 7x7, partner max 10 µM) | 0.821 | 0.545 | 0.992 | 0.227 | 0.566 | 0.977 | 0.312 | 0.265 | 0.714 | 0.22 | 0.606 |  | 0.549 | 0.966 | 0.772 | 1 | 0.464 | 0.688 | 0.796 | 0.829 |
